Reference: patent publication US20040063681A1, “Methods for using gold (III) complexes as anti-tumor and anti-HIV agents” (priority 2002, published 2004)
Where “and” joins values, the source holds several entries; their conditions need not be identical. Equal entries are not always repeated.

Tests used:
[1] = molecular target: T1, HIV-1 reverse transcriptase (Human immunodeficiency virus type 1 group M subtype B, UniProt P04585); assay: HIV-1 reverse transcriptase activity, ELISA method; type: biochemical; details: ELISA; mean ± SE of at least three determinations; read-out: IC50 HIV-1 RT
T1 construct: treatment of HIV-1 RT in Lysis buffer (2 ng, 128.7 μL) with Complex 1j
Protocol: HIV-1 reverse transcriptase activities were measured by an ELISA method (see Eberle et al, J. Virol. Methods, 40:347-356 (1992) performed by incubating the enzyme with digoxigenin-labeled deoxyuridin-5′-triphosphate (dUTP) and the biotin-labeled analogue during reverse transcription starting from the template/primer hybrid poly(A)•oligo(dT)15. After reverse transcription, the newly synthesized DNA was immobilized onto streptavidin-coated ELISA wells, and the incorporation of the dioxigenin-labeled dUTP was assayed by chemiluminescence method. For example, treatment of HIV-1 RT in Lysis buffer (2 ng, 128.7 μL) with Complex 1j (1.3 μL of […] stock solution) dissolved in TBS at 37° C. produced significant RT activity inhibition (˜95%) after 30 min incubation.

plasmid DNA (pDR2) = assay: Restriction endonuclease (ApaI) fragmentation assay
Excerpt: Binding of the metalloporphyrin onto a duplex DNA such as plasmid DNA (pDR2) is expected to occupy the binding site of the restriction enzyme ApaI, thereby inhibiting the enzymatic DNA digestion. See Ikeda et al., J. Am. Chem. Soc. 104:296-297 (1982).
After ApaI digestion, (lane B), three bands corresponding to 6.6, 4.4 and 2.0 kbp were observed.

[2] = Control UV-vis titration with sodium dodecyl sulfate instead of DNA; type: binding; details: sodium dodecyl sulfate (0-5 μM) instead of DNA
Excerpt: See Neidle, S. DNA structure and recognition; Oxford University Press: Oxford, 1994; 74-79.

calf thymus DNA = assay: UV-vis absorption titration with calf thymus DNA; type: binding
Protocol: The calf thymus DNA was purchased from Sigma-Aldrich Chemical Co. and was purified by phenol-chloroform extraction. The DNA was dissolved in buffer (5 mM Tris, 5 mM NaCl, pH 7.2). The concentration (per base pair) of calf thymus DNA was determined spectrophotometrically on the basic of ε260, 13,200 M^−1cm^−1bp.
Absorption Titration. The binding interaction of the gold(III) porphyrins to duplex DNA has been studied by UV-vis spectroscopy.
where [ctDNA] is the concentration of DNA, Δεap═|εA−εB| in which εA=Aobs/[complex], and Δε=|εB−εF|. εB and εF correspond to the extinction coefficient of DNA-bound gold(III) porphyrin and the free gold(III) porphyrins, respectively.
The effect of temperature on the intrinsic binding constants was investigated. Using the van't Hoff equation (2): […]

[3] = test system: Human Hepatocellular Carcinoma (HepG2); assay: MTT cytotoxicity, HepG2; type: cell-based; details: growth inhibition
Excerpt: Human promyelocytic leukemia (HL-60), human hepatocellular carcinoma (HepG2), Human cervix epitheloid carcinoma cells (HeLa) and human oral epidermoid carcinoma cells (KB-3-1), were obtained from American Type Culture Collection (ATCC) (Rockville, Md.). The multi-drug-resistant variant KB-V1 cell line was obtained by stepwise selections for vinblastine resistance as described by Shen et al., J. Biol. Chem. 261:7762-7770 (1986)], and was generously provided by Dr Michael Gottesman (NIH, Bethesda, Md.). Human nasopharyngeal carcinoma cells (SUNE1 and its cisplatin resistance variant, CNE1) were derived from poorly differentiated NPC in Chinese patients as described by Gu et al., Chin. J. Cancer 2:270-272 (1983), and were generously provided by Dr S. W. Tsao (The University of Hong Kong, Hong Kong, PRC). Cell culture flasks and 96 well microtitre plates were from Nalge Nunc hit. Culture medium, other medium constituents and phosphate buffered saline (PBS) were obtained from Gibco BRL (Rockville, Md.). Cell Proliferation Kit I (MTT) was purchased from Roche (Mannheim, Germany).
The anti-cancer activities of the gold(III) porphyrin complexes were evaluated toward some established human cancer cell lines: promyelocytic leukemia (HL-60), hepatocellular carcinoma (HepG2), cervix epitheloid carcinoma (HeLa), epidermoid carcinoma (KB-3-1) and its multi-drug resistant variant (KB-V1), nasopharyngeal carcinoma (SUNE1) and its cisplatin-resistant variant (CNE1). The experiments were carried out by following the MTT procedure (see Mosmann et al., J. Immunol. Methods 65:55-63 (1983). The IC50 values of the gold(III) porphyrin complexes together with that of cisplatin, and KAuCl4 are provided in Table 4a; and the IC50 values of the gold(III) Schiff-base and bis(pyridyl)carboxamide complexes are shown in Table 4b. The cytotoxicity profiles of some selected gold(III) porphyrin complexes toward SUNE1 and its cisplatin-resistant variant CNE1 are also shown in FIG. 7.

[4] = 1H-NMR stability experiments with GSH; type: physicochemical; details: 72 h
Protocol: ^1H-NMR experiments. […] The pH was adjusted to 7.4 with NaOD, and the solution was degassed for 10 min by bubbling with nitrogen to minimize oxidation of GSH. Similar experimental setup was done for Complex 1j, except this analysis was carried out in D2O only. The electronic spectra of the resulting mixtures was then monitored for 72 h.
It is known that the chemical shifts of the pyrrolic protons are sensitive to the oxidation states of the gold center, and reduction of Au(III) to Au(I) or Au(0) is expected to be accompanied by spectral changes in the pyrrolic region.
Glutathione can be oxidized to form a disulfide bridged dimer (GSSG) with a mild oxidizing agent such as gold(III) complex. A previous study by Sun et al., Eur. J. Biochem. 267:5450-5457 (2000) established that GSSG is characterized by a doublet absorption peak at δH 3.30 ppm, assignable to β-CH2 group as depicted in Scheme 5. Scheme 5. Characteristic proton resonance absorptions for (a) GSH and (b) GSSG in D2O [drawing 29]
The results of the NMR studies indicate that illustrative Complexes 1a-1k are stable under physiologically relevant conditions.

Question: Which IC50 [1] does the source give for `C1=Cc2nc1c(-c1ccccc1)c1ccc([n-]1)c(-c1ccccc1)c1nc(c(-c3ccccc3)c3ccc([n-]3)c2-c2ccccc2)C=C1.[Au+3].[Cl-]` [Complex 1a] here?
Answer: 28.4 µM and 28 µM

Question: What about the “effect on ApaI digestion of pDR2” value (plasmid DNA (pDR2); Complex:DNA = 0.1:1 (lane C)) of the same compound?
Answer: partial DNA digestion was observed

Question: And the “effect on ApaI digestion of pDR2” value (plasmid DNA (pDR2); Complex:DNA bp = 1:1 (lane D))?
Answer: inhibition of the DNA digestion was observed

Question: What about the “hypochromicity of the Soret band” value [2] of the same compound?
Answer: 48%

Question: And the hypochromicity (calf thymus DNA; Tris buffer, 292.8 K)?
Answer: 53.4%

Question: What about the hypochromicity (calf thymus DNA; Tris buffer, 298.0 K) of the same compound?
Answer: 50.3%

Question: What about the “intrinsic binding constant (Kb)” value (calf thymus DNA; Tris buffer, 298.0 K) of the same compound?
Answer: 2.14 × 10^6 dm^3mol^−1

Question: What about the hypochromicity (calf thymus DNA; Tris buffer, 302.3 K) of the same compound?
Answer: 49.5%

Question: What about the “intrinsic binding constant (Kb)” value (calf thymus DNA; Tris buffer, 302.3 K) of the same compound?
Answer: 1.98 × 10^6 dm^3mol^−1

Question: What about the hypochromicity (calf thymus DNA; Tris buffer, 307.2 K) of the same compound?
Answer: 47.1%

Question: And the “intrinsic binding constant (Kb)” value (calf thymus DNA; Tris buffer, 307.2 K)?
Answer: 1.55 × 10^6 dm^3mol^−1

Question: And the hypochromicity (calf thymus DNA; Tris buffer, 311.6 K)?
Answer: 46.3%

Question: What about the “intrinsic binding constant (Kb)” value (calf thymus DNA; Tris buffer, 311.6 K) of the same compound?
Answer: 1.35 × 10^6 dm^3mol^−1

Question: And the hypochromicity (calf thymus DNA; Tris buffer, 316.5 K)?
Answer: 43.4%

Question: And the “intrinsic binding constant (Kb)” value (calf thymus DNA; Tris buffer, 316.5 K)?
Answer: 0.94 × 10^6 dm^3mol^−1

Question: And the hypochromicity (calf thymus DNA; Tris buffer, 321.9 K)?
Answer: 42.5%

Question: What about the “intrinsic binding constant (Kb)” value (calf thymus DNA; Tris buffer, 321.9 K) of the same compound?
Answer: 0.82 × 10^6 dm^3mol^−1

Question: And the “ΔG° (298 K)” value (calf thymus DNA; binding to calf thymus DNA, van't Hoff analysis, 298 K)?
Answer: −8.7 ± 0.4

Question: And the “hypochromicity of the Soret band” value (calf thymus DNA; calf thymus DNA (0-5 μM), Tris buffer)?
Answer: 44%

Question: And the “hypochromicity of the Q-band at 520 nm” value (calf thymus DNA; calf thymus DNA (0-5 μM), Tris buffer, 2% DMSO)?
Answer: 40%

Question: And the IC50 [3]?
Answer: 0.34 µM

Question: And the “1H NMR spectral changes” value ([4]; GSH (2 mM), D2O/CD3CN (9:1 v/v), room temperature)?
Answer: no significant spectral changes were observed

Question: And the “changes of 1H NMR spectral pattern in the aromatic region (δH 7.2-8.4 ppm)” value ([4]; with GSH)?
Answer: did not observe any significant changes of the spectral pattern
